Key:
[1] = system: enteropeptidase; test: 30 nM enteropeptidase; settings: 37 °C, up to 120 min
[2] = system: testisin; test: 30 nM testisin in testisin buffer (50 mM Tris, 150 mM NaCl, 10 mM CaCl2, pH 7.5); settings: 37 °C, up to 120 min
[3] = system: urokinase; test: 30 nM urokinase; settings: 37 °C, up to 120 min
[4] = media from untreated U937 cells (RMPI 1640 medium); settings: 37 °C, up to 4 h
[5] = system: Jurkat T cells; test: Internalization of FITC-labeled peptides by Jurkat T cells, FACS; settings: 5 μM, 1 h, 37 °C, full medium with 10% FBS, washed, fixed with 4% paraformaldehyde, FACSCalibur, compared with untreated cells, Fig. 5A
Procedure: For the internalization experiment, cells were seeded at 1 × 10^6 cells/ml with 8 ml of full medium into 75-cm^2 flasks and treated with respective 200 nM proteins for 2 h or 5 μM peptides for 1 h.
Human A+-helix peptide ([…]; corresponding to the cleaved N-terminal peptide of hPCI), mouse A+-helix peptide ([…]; corresponding to the cleaved N-terminal peptide of mPCI), and TAT peptide ([…]) ([42]) were synthesized and labeled with FITC (GenScript, Piscataway, NJ). […] Fluorescence-activated cell sorting (FACS) analysis was performed with a FACSCalibur flow cytometer (BD Biosciences). Further data analysis was done with Flowing Software ([43]). For confocal microscopy, the fixed cells were suspended with Vectashield mounting medium containing […] DAPI (Vector Laboratories, Burlingame, CA) and transferred onto slides. Confocal images were taken by a Zeiss LSM-510 Meta confocal microscope system (Zeiss, Jena, Germany). Zeiss LSM Image Browser software was applied for further analysis of images.

cleaved bond [2] | Substance | not cleaved [1] | not cleaved [3] | not cleaved [4] | cellular fluorescence signal (FACS) [5]
Ala18-Val19 | RRHSHSKKKKAKESSVGAVGPPSSKDFA... | still recognized by anti-penta-His IgG after 2-h incubation | still recognized by anti-penta-His IgG after 2-h incubation | did not affect the molecular weight of mPCI upon incubation for 1 and 4 h | –
– | Fluorescein Isothiocyanate [free FITC] | – | – | – | small shift

Reference: article PMC4317013 (The Journal of Biological Chemistry, 2014)
